Test results published in PMC8151276, “An Integrated Approach toward NanoBRET Tracers for Analysis of GPCR Ligand Engagement” (Molecules, 2021).

Molecular target: T1, ADRA1A (Homo sapiens, UniProt P35348)
T1 construct: purchased Promega (in-house HiBiT-GPCR construct library, NanoBRET)
T1 sequence (P35348 1-466): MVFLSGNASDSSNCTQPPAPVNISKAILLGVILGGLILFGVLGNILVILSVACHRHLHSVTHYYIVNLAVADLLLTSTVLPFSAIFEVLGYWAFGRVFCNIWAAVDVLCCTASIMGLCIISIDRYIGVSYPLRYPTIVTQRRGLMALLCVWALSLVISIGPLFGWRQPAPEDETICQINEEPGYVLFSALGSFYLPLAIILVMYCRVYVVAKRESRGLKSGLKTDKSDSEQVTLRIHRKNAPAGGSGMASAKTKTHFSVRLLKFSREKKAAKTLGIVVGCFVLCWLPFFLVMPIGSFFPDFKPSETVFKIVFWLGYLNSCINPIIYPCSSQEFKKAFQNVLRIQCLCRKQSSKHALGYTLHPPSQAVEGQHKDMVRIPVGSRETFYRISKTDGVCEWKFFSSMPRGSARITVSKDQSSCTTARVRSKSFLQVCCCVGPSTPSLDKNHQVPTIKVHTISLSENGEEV
Test: NanoBRET screen HiBiT-ADRA1A in HEK293
Format: binding
Protocol: Each tracer candidate was screened across the entire library of HiBiT-GPCR constructs using NanoBRET as the detection modality. As depicted in Figure 4A, the specificity of interactions was evaluated through decrease in BRET due to competitive displacement of a bound tracer by excess parental compound. Each tracer was analyzed for binding to each HiBiT-GPCR fusion in the absence and in the presence of competing parental compound. Briefly, HEK293 cells were transfected with HiBiT-GPCR constructs diluted into promoterless DNA to reduce expression and maximize translocation to the cell surface. Each tracer candidate was then screened at concentrations of 1 μM and 0.1 μM across cells expressing these fusions. Cells were treated for 1.5 h with tracer either alone or in the presence of 20 μM competing parental compound (i.e., control). BRET was measured upon addition of purified LgBiT and subsequent complementation with HiBiT genetically fused to a GPCR. The specificity of interactions was assessed through a decrease in BRET signal due to competitive displacement of the bound tracer. To further gauge the robustness of these interactions, the fold response over the control (i.e., BRETtracer/BRETcontrol) was calculated. We chose a 1.5-fold response, which translates to ≥7-fold signal over noise as the minimal threshold required to score an interaction as positive.
HiBiT-GPCR DNA constructs were diluted in 10 mM Tris pH 8 to a final concentration of 0.01 μg/μL, arrayed in 96-well plates and stored at −20 °C. For transfection, HEK293 cells were suspended in Opti-MEM (without phenol red) supplemented with 2% fetal bovine serum (Seradigm) and 100 units/mL penicillin–streptomycin (Gibco) at a final concentration of 220,000 cells/mL and dispensed into white 96-well plates at 90 μL/well. Subsequent transfections and screens were carried using an Agilent Bravo Automated Liquid Handling Platform. First, the 96-well HiBiT DNA arrays were diluted 25-fold in Opti-MEM (without serum or phenol red) to a final concentration of 0.0004 μg/μL and 20 μL of the diluted DNAs were transferred into new 96-well plates. Next, promoterless carrier DNA (1 μg/μL) was diluted 25-fold (0.04 μg/μL) and then dispensed into the diluted arrays at 20 μL/well. Following brief mixing, Viafect transfection reagent (Promega) diluted 16-fold into Opti-MEM was dispensed into the plates at 40 μL/well. After mixing by pipetting, plates were incubated for 10 min on the pipetting station deck. The DNA-transfection reagent complexes were then added to plates containing cells. To facilitate the screen, 10 μL of DNA-transfection reagent complexes were added in duplicates to the top 4 and bottom 4 rows, resulting in two identical 48-well arrays per plate. Plates with transfected cells were incubated for 18–20 h at 37 °C/5% CO2. A screen of each tracer across the entire library using two different concentrations requires duplicate plates of transfected cells. Depending on the number of tracers being screened, transfections can be scaled up using the same ratios. The next day, for each tracer, four 20× screening solutions in tracer dilution buffer (Promega) were prepared: two duplicates at final concentration of 20 μM and two duplicates at a final concentration of 2 μM. […] The four resulting solutions were diluted 4-fold in Opti-MEM without serum or phenol red to generate 5× solutions (5 µM and 0.5 µM tracer +/− 100 μM competing compound). To screen the library, a BioTek MultiFlo FX liquid dispenser was used to dispense 22.5 µL of tracer solution to the top 4 rows and 22.5 µL tracer + competing compound solution to the 4 bottom rows. Plates were briefly mixed on an orbital shaker and incubated for 1.5 h at room temperature. […] Plates were briefly mixed on an orbital shaker and incubated for 15 min to allow complementation.

Row | Compound | NanoBRET Fold Response (ADRA1A, tracer 0.1μM) | NanoBRET Fold Response (ADRA1A, tracer 1μM) | other results
1 | CCOC(=O)c1cc(C#N)c(N2CCC(C(=O)NS(=O)(=O)Cc3ccccc3/C=C/C(=O)NCCNC(=O)CCc3ccc4n3[B-](F)(F)[N+]3=C(c5ccc[nH]5)C=CC3=C4)CC2)nc1C [AZD1283-1-NB590] |  |  | NanoBRET Fold Response (ADRA1A, 0.1μM): 1.06; NanoBRET Fold Response (ADRA1A, 1μM): 1.06
2 | N#CN/C(=N\CCNC(=O)c1ccc(N)cc1)NCCCOc1cccc(CN2CCCCC2)c1 [Aminopotentidine (unmodified)] |  |  | NanoBRET Fold Response (ADRA1A, other tracers/Aminopotentidine (unmodified), 0.1μM): 1.03; NanoBRET Fold Response (ADRA1A, other tracers/Aminopotentidine (unmodified), 1μM): 1.07
3 | N#CN=C(NCCCOc1cccc(CN2CCCCC2)c1)NCCNC(=O)CCOCCOCCOCCOCCNC(=O)CCc1ccc2n1[B-](F)(F)[N+]1=C(c3ccc[nH]3)C=CC1=C2 [Aminopotentidine-2-NB590] | 1.05 | 1.00 | 
4 | CN(C)CCC=C1c2ccccc2CCc2ccc(C(=O)NCCNC(=O)CCOCCOCCOCCOCCNC(=O)CCc3ccc4n3[B-](F)(F)[N+]3=C(c5ccc[nH]5)C=CC3=C4)cc21 [Amitriptyline-a-2-NB590] |  |  | NanoBRET Fold Response (tracer at 0.1μM): 1.38; NanoBRET Fold Response (tracer at 1μM): 2.14
5 | CN(C)CCC=C1c2ccccc2CCc2ccc(C(=O)NCCNC(=O)CCOCCOCCOCCOCCNC(=O)CCc3ccc4n3[B-](F)(F)[N+]3=C(c5ccc[nH]5)C=CC3=C4)cc21 [Amitriptyline-b-2-NB590] |  |  | NanoBRET Fold Response (tracer at 0.1μM, listed as amitriptyline-b-2-NB590): 4.73; NanoBRET Fold Response (tracer at 1μM, listed as amitriptyline-b-2-NB590): 2.23
6 | CN(CCC=C1c2ccccc2CCc2ccccc21)C(=O)CCOCCOCCOCCOCCNC(=O)CCc1ccc2n1[B-](F)(F)[N+]1=C(c3ccc[nH]3)C=CC1=C2 [Amitriptyline-e-2-NB590] |  |  | NanoBRET Fold Response (tracer at 1μM): 1.32
7 | COc1ccc2c(n1)c(CCNC(C)=O)cn2CCNC(=O)CCc1ccc2n1[B-](F)(F)[N+]1=C(c3ccc[nH]3)C=CC1=C2 [Azamelatonin-1-NB590] |  |  | NanoBRET Fold Response (0.1μM tracer): 0.96; NanoBRET Fold Response (1μM tracer): 0.95
8 | COc1ccc2[nH]c(-c3ccc(CNC(=O)CCOCCOCCOCCOCCNC(=O)CCc4ccc5n4[B-](F)(F)[N+]4=C(c6ccc[nH]6)C=CC4=C5)cc3)c(CCNC(C)=O)c2n1 [AzomelatoninICO9-2-NB590] |  |  | NanoBRET Fold Response (0.1μM tracer): 1.06; NanoBRET Fold Response (1μM tracer): 0.94
9 | O=C(CCOCCOCCOCCOCCNC(=O)CCc1ccc2n1[B-](F)(F)[N+]1=C(c3ccc[nH]3)C=CC1=C2)NCCCN1CCN(C2=Nc3cc(Cl)ccc3Nc3ccccc32)CC1 [Clozapine-a-2-NB590] |  |  | NanoBRET Fold Response (ADRA1A, 0.1μM tracer): 3.90; NanoBRET Fold Response (ADRA1A, 1μM tracer): 3.21
10 | O=C(CCOCCOCCOCCOCCNC(=O)CCc1ccc2n1[B-](F)(F)[N+]1=C(c3ccc[nH]3)C=CC1=C2)NCCCN1CCN(C2=Nc3ccccc3Oc3ccc(Cl)cc32)CC1 [Loxapine-a-2-NB590] | 3.76 | 3.42 | 
11 | COc1ccccc1N1CCN(CCCCN2C(=O)c3ccc(CNC(=O)CCOCCOCCOCCOCCNC(=O)CCc4ccc5n4[B-](F)(F)[N+]4=C(c6ccc[nH]6)C=CC4=C5)cc3C2=O)CC1 [NAN-190-2-NB590] | 5.18 | 4.33 | 
12 | COc1ccccc1N1CCN(CCCCN2C(=O)c3ccc(CNC(=O)CCOCCNC(=O)c4ccc(CNC(=O)CCc5ccc6n5[B-](F)(F)[N+]5=C(c7ccc[nH]7)C=CC5=C6)cc4)cc3C2=O)CC1 [NAN-190-3-NB590] | 3.94 | 3.91 | 
13 | O=C(CCc1ccc2n1[B-](F)(F)[N+]1=C(c3ccc[nH]3)C=CC1=C2)NCc1ccc(C(=O)NCCOCCC(=O)N[C@@H]2CC[C@@]3(O)[C@H]4Cc5ccc(O)c6c5[C@@]3(CCN4CC3CC3)[C@H]2O6)cc1 [Naltrexone-3-NB590] | 1.10 | 0.96 | 
14 | Cc1cc2c(s1)Nc1ccccc1N=C2N1CCN(CCCNC(=O)CCOCCOCCOCCOCCNC(=O)CCc2ccc3n2[B-](F)(F)[N+]2=C(c4ccc[nH]4)C=CC2=C3)CC1 [Olanzapine-a-2-NB590] | 2.86 | 3.58 | 
15 | O=C(CCc1ccc2n1[B-](F)(F)[N+]1=C(c3ccc[nH]3)C=CC1=C2)NCc1ccc(C(=O)NCCOCCOCCNCC(O)COc2cccc3ccccc23)cc1 (stereo not drawn) [Propranolol-3-NB590] |  |  | NanoBRET Fold Response (ADRA1A, 0.1μM): 1.53; NanoBRET Fold Response (ADRA1A, 1μM): 1.47
16 | O=C(CCc1ccc2n1[B-](F)(F)[N+]1=C(c3ccc[nH]3)C=CC1=C2)NCCOCCOCCNC(=O)OCCOCCN1CCN(C2=Nc3ccccc3Sc3ccccc32)CC1 [Quetiapine-a-2-NB590] | 3.24 | 3.51 | 
17 | Cc1nc2n(c(=O)c1CCN1CCC(c3noc4cc(F)ccc34)CC1)CCCC2OC(=O)NCCOCCOCCOCCOCCNC(=O)CCc1ccc2n1[B-](F)(F)[N+]1=C(c3ccc[nH]3)C=CC1=C2 (stereo not drawn) [Risperidone-2-NB590] | 4.86 | 3.45 | 
18 | CC(C)N(CC[C@H](c1ccccc1)c1cc(CCNC(=O)CCOCCOCCOCCOCCNC(=O)CCc2ccc3n2[B-](F)(F)[N+]2=C(c4ccc[nH]4)C=CC2=C3)ccc1O)C(C)C [Tolterodine-2-NB590] | 0.97 | 0.98 | 
19 | CC(C)N(CC[C@H](c1ccccc1)c1cc(CCNC(=O)c2ccc(CNC(=O)CCc3ccc4n3[B-](F)(F)[N+]3=C(c5ccc[nH]5)C=CC3=C4)cc2)ccc1O)C(C)C [Tolterodine-BZ-NB590] | 1.56 | 2.17 | 
20 | CCCn1c(=O)c2[nH]c(-c3ccc(OCC(=O)NCCNC(=O)CCOCCNC(=O)c4ccc(CNC(=O)CCc5ccc6n5[B-](F)(F)[N+]5=C(c7ccc[nH]7)C=CC5=C6)cc4)cc3)nc2n(CCC)c1=O [XAC-3-NB590] | 1.10 | 0.94 | 
